Source: patent publication US12559475B2, “Tetrazine compound capable of having rapid cycloaddition reaction with non-strained olefinic boronic acid and biomedical application thereof” (NANJING UNIVERSITY, priority 2024, dated 2026)

Assays:
HepG2 cells = test: Toxicity (MTT cell survival) in HepG2 cells; assay type: cell-based; conditions: for IC50: Homo sapiens, HepG2, 48 h incubation, 1% FBS DMEM, MTT
Experimental: Toxicity of the tetrazine Tz-2, the doxorubicin prodrug DOX-VBA, the addition product, and the doxorubicin DOX were first tested.
HepG2 cells were plated in a 96-well plate and attached overnight; 1% FBS DMEM was used as a culture medium on the next day, different concentrations of Tz-2, DOX-VBA, product, and DOX were then added to the culture medium, and incubation was performed at 37° C. for 48 h; and 50 μL 1×MTT was added, the reaction continued for 4 h, DMSO was added to remove the culture medium, and cell survival rates at different concentrations were tested to calculate IC50 values (the cell survival rates were shown in FIG. 6).

[1] = Reaction rate testing of tetrazine compounds and styryl boronic acid (HPLC); conditions: tetrazine 1 mM, styryl boronic acid 0.2 mM, methanol
Experimental: Specific implementation method: HPLC was used to test reaction rates by monitoring residual amounts of tetrazine compounds after different tetrazine compounds reacted with styryl boronic acid, where a molar concentration of the tetrazine compounds was 1 mM, and a molar concentration of styryl boronic acid was 0.2 mM, and a solvent was methanol solution.

[2] = Stability testing of tetrazine compounds in 10% FBS/DMEM (HPLC residual amount); assay type: physicochemical; conditions: 100 µM, 2.5% DMSO
Experimental: Specific implementation method: The tetrazine compounds were respectively dissolved in a 10% FBS/DMEM solution at a concentration of 100 µM (the solution contained 2.5% DMSO as a solubilizing agent), and residual amounts of tetrazine compounds were monitored via HPLC after 6 hours and 24 hours to analyze the stability of tetrazine compounds in a biological environment.

[3] = Molecular release testing of tetrazine compound and styryl boronic acid derivative VBA-2 (NMR); conditions: Tz-2 + VBA-2, 0.02 M, deuterated DMSO:deuterated H2O=9:1, NMR
Experimental: Specific implementation method: the tetrazine compound Tz-2 and the styryl boronic acid derivative VBA-2 were dissolved in a deuterated solution (deuterated DMSO:deuterated H2O=9:1) at a molar concentration of 0.02 M. Reactions after 5 min, 12 h and 24 h were tested using a 500 MHz a nuclear magnetic resonance analyzer, and characteristic signal peaks of reactants and products on a hydrogen spectrum were tested to assess molecular release.

Compound | residual amount of tetrazine compound ([2]; 6 h) | residual amount of tetrazine compound ([2]; 24 h) | IC50 (HepG2 cells) | k2 [1] | toxicity (in words) (HepG2 cells; HepG2 cells) | time in which half of the benzylamine molecules were released [3]
COc1cccc2c1C(=O)c1c(O)c3c(c(O)c1C2=O)C[C@@](O)(C(=O)CO)C[C@@H]3O[C@H]1C[C@H](N)[C@H](O)[C@H](C)O1 [DOX, doxorubicin, reference compound] | – | – | 500 nM | – | – | –
COc1ccnc(-c2nnc(-c3ccccc3)nn2)c1C [Tz-1] | 99% | 85% | – | 56 M⁻¹ s⁻¹ | – | –
COc1ccnc(-c2nnc(-c3ccccn3)nn2)c1C [Tz-2] | 55% | 17% | > 100000 nM | 168 M⁻¹ s⁻¹ | non-toxic | 12 h

Further lines, with some results ahead:

residual amount of tetrazine compound ([2]; 6 h) | residual amount of tetrazine compound ([2]; 24 h) | Compound | IC50 (HepG2 cells) | k2 [1] | toxicity (in words) (HepG2 cells; HepG2 cells) | time in which half of the benzylamine molecules were released [3]
99% | 92% | COc1ccnc(-c2nnc(-c3ccc(NC(=O)OC(C)(C)C)cc3)nn2)c1C [Tz-10] | – | 45 M⁻¹ s⁻¹ | – | –
99% | 92% | COc1ccnc(-c2nnc(-c3ccc(CNC(=O)OC(C)(C)C)cc3)nn2)c1C [Tz-11] | – | 23 M⁻¹ s⁻¹ | – | –
99% | 90% | COc1c(C)cnc(-c2nnc(-c3ccccc3)nn2)c1C [Tz-16] | – | 28 M⁻¹ s⁻¹ | – | –
35% | 1% | c1ccc(-c2nnc(-c3ccccn3)nn2)nc1 [Tz-Py, reference compound] | – | 1.4 M⁻¹ s⁻¹ | – | –
